Where two headings read alike, the source gives them in different places. Values belong to the compound of their own block, whether it stands above or below them.
Legend:
mock-infected MT-2 cell [1] = tested on: mock-infected MT-2 cell
Description: (§1) HIV-1IIIB Replication Inhibition Assay in MT-2 Lymphocytes. The evaluation of HIV-1 inhibition was carried out as follows. […] Control wells containing virus and cells only (no drug) and cells only (no virus or drug) were also prepared. A second identical set of samples were added to cells under the same conditions without virus (mock infection) for cytotoxicity determinations (CC50 defined below). […] On day 4 PI, the assay was terminated and culture supernatants were harvested for p24 antigen ELISA analysis. The compound cytotoxicity was determined by XTT using the mock-infected sample wells.

HIV-1NL4-3 = HIV-1NL4-3 replication inhibition assay in MT-4 lymphocytes (p24 antigen ELISA); type: cell-based
Text: HIV-1NL4-3 Replication Inhibition Assay in MT-4 Lymphocytes. A previously described HIV-1 infectivity assay was used.^28,33 A 96-well microtiter plate was used to set up the HIV-1NL4-3 replication screening assay. NL4-3 variants at a multiplicity of infection (MOI) of 0.01 were used to infect MT4 cells. Culture supernatants were collected on day 4 post-infection for the p24 antigen capture using an ELISA kit from ZeptoMetrix Corporation (Buffalo, N.Y.).

mock-infected MT-4 cell = test: Cytotoxicity in mock-infected MT-4 cells; type: cell-based
HIV-1IIIB = HIV-1IIIB replication inhibition assay in MT-2 lymphocytes (p24 antigen ELISA); type: cell-based; settings: HIV-1IIIB infected MT-2 cell lines, concentration that inhibits HIV-1IIIB replication by 50%, NS: no suppression at concentrations below the CC50
Description: as §1

mock-infected MT-2 cell [2] = test: Cytotoxicity in mock-infected MT-2 cells (XTT); settings: concentration that inhibits mock-infected MT-2 cell growth by 50%
Description: as §1

[3] = HIV-1NL4-3 infected MT-4 cell lines, concentration that inhibits HIV-1NL4-3 replication by 50%

Structure (SMILES): Cc1cn([C@H]2C[C@H](N=[N+]=[N-])[C@@H](CO)O2)c(=O)[nH]c1=O [AZT, reference compound]
CC50 (mock-infected MT-2 cell [1]): 1870 µM

EC50 (HIV-1NL4-3; [3]): 0.089 µM
Structure (SMILES): C=C(C)[C@@H]1CC[C@]2(C(=O)NCCCCCCCC(=O)N[C@@H](CC(C)C)[C@H](O)CC(=O)O)CC[C@]3(C)[C@H](CC[C@@H]4[C@@]5(C)CC[C@H](O)C(C)(C)[C@@H]5CC[C@]43C)[C@@H]12 [Compound 3b, IC9564, reference compound]
CC50 (mock-infected MT-4 cell): > 10 µM

EC50 (HIV-1NL4-3; [3]): 0.092 µM | EC50 (HIV-1NL4-3; value of prior best entry inhibitor 4 as given in text, unit inferred): 0.1 µM
Structure (SMILES): C=C(C)[C@@H]1CC[C@]2(C(=O)NCCCCCCCNC(C)=O)CC[C@]3(C)[C@H](CC[C@@H]4[C@@]5(C)CC[C@H](O)C(C)(C)[C@@H]5CC[C@]43C)[C@@H]12 [Compound 4, A43-D, reference compound]
CC50 (mock-infected MT-4 cell): > 10 µM

Structure (SMILES): C=C(COCC)[C@@H]1CC[C@]2(C(=O)N[C@@H](CC(C)C)C(=O)O)CC[C@]3(C)[C@H](CC[C@@H]4[C@@]5(C)CC[C@H](O)C(C)(C)[C@@H]5CC[C@]43C)[C@@H]12 [Compound 10, N-[3β-Hydroxy-30-ethoxy-lup-20(29)-en-28-oyl]-leucine]
EC50 (HIV-1IIIB): > 16.7 µM | CC50 (mock-infected MT-2 cell [2]): 40.7 µM

Structure (SMILES): C=C(COCCC)[C@@H]1CC[C@]2(C(=O)N[C@@H](CC(C)C)C(=O)O)CC[C@]3(C)[C@H](CC[C@@H]4[C@@]5(C)CC[C@H](O)C(C)(C)[C@@H]5CC[C@]43C)[C@@H]12 [Compound 11, N-[3β-Hydroxy-30-propoxy-lup-20(29)-en-28-oyl]-leucine]
EC50 (HIV-1IIIB): > 16.7 µM | CC50 (mock-infected MT-2 cell [2]): 25.3 µM

Structure (SMILES): C=C(COCCCC)[C@@H]1CC[C@]2(C(=O)N[C@@H](CC(C)C)C(=O)O)CC[C@]3(C)[C@H](CC[C@@H]4[C@@]5(C)CC[C@H](O)C(C)(C)[C@@H]5CC[C@]43C)[C@@H]12 [Compound 12, N-[3β-Hydroxy-30-butoxy-lup-20(29)-en-28-oyl]-leucine]
EC50 (HIV-1IIIB): > 16.7 µM | CC50 (mock-infected MT-2 cell [2]): 24.9 µM

Structure (SMILES): C=C(COCCc1ccccc1)[C@@H]1CC[C@]2(C(=O)N[C@@H](CC(C)C)C(=O)O)CC[C@]3(C)[C@H](CC[C@@H]4[C@@]5(C)CC[C@H](O)C(C)(C)[C@@H]5CC[C@]43C)[C@@H]12 [Compound 13, N-[3β-Hydroxy-30-phenethoxy-lup-20(29)-en-28-oyl]-leucine]
EC50 (HIV-1IIIB): > 16.7 µM | CC50 (mock-infected MT-2 cell [2]): 21.7 µM

Structure (SMILES): C=C(COCCc1ccc(OC)cc1)[C@@H]1CC[C@]2(C(=O)N[C@@H](CC(C)C)C(=O)O)CC[C@]3(C)[C@H](CC[C@@H]4[C@@]5(C)CC[C@H](O)C(C)(C)[C@@H]5CC[C@]43C)[C@@H]12 [Compound 14, N-[3β-Hydroxy-30-(4′-methoxyphenethoxy)-lup-20(29)-en-28-oyl]-leucine]
EC50 (HIV-1IIIB): > 16.7 µM | CC50 (mock-infected MT-2 cell [1]): 16.7 µM

Structure (SMILES): C=C(COCCc1ccc(F)cc1)[C@@H]1CC[C@]2(C(=O)N[C@@H](CC(C)C)C(=O)O)CC[C@]3(C)[C@H](CC[C@@H]4[C@@]5(C)CC[C@H](O)C(C)(C)[C@@H]5CC[C@]43C)[C@H]12 [Compound 15, N-[3β-Hydroxy-30-(4% fluorophenethoxy)-lup-20(29)-en-28-oyl]-leucine]
EC50 (HIV-1IIIB): > 16.7 µM | CC50 (mock-infected MT-2 cell [1]): 24.4 µM

Structure (SMILES): C=C(COCCc1ccc(Br)cc1)[C@@H]1CC[C@]2(C(=O)N[C@@H](CC(C)C)C(=O)O)CC[C@]3(C)[C@H](CC[C@@H]4[C@@]5(C)CC[C@H](O)C(C)(C)[C@@H]5CC[C@]43C)[C@@H]12 [Compound 16, N-[3β-Hydroxy-30-(4′-bromophenethoxy)-lup-20(29)-en-28-oyl]-leucine]
EC50 (HIV-1IIIB): > 16.7 µM | CC50 (mock-infected MT-2 cell [1]): 20.8 µM

Structure (SMILES): C=C(COCCc1ccc(Cl)cc1)[C@@H]1CC[C@]2(C(=O)N[C@@H](CC(C)C)C(=O)O)CC[C@]3(C)[C@H](CC[C@@H]4[C@@]5(C)CC[C@H](O)C(C)(C)[C@@H]5CC[C@]43C)[C@@H]12 [Compound 17, N-[3β-Hydroxy-30-(4′-chlorophenethoxy)-lup-20(29)-en-28-oyl]-leucine]
EC50 (HIV-1IIIB): 27.8 µM | CC50 (mock-infected MT-2 cell [1]): 34.6 µM

Structure (SMILES): C=C(CN1CCOCC1)C1CCC2(C(=O)NC(CC(C)C)C(=O)O)CCC3(C)C(CCC4C5(C)CCC(O)C(C)(C)C5CCC43C)C12 (stereo not drawn) [Compound 18, N-[3β-Hydroxy-30-morpholino-lup-20(29)-en-28-oyl]-leucine]
EC50 (HIV-1IIIB): > 16.7 µM | CC50 (mock-infected MT-2 cell [2]): 27.5 µM

Structure (SMILES): C=C(COCCN1CCOCC1)[C@@H]1CC[C@]2(C(=O)N[C@@H](CC(C)C)C(=O)O)CC[C@]3(C)[C@H](CC[C@@H]4[C@@]5(C)CC[C@H](O)C(C)(C)[C@@H]5CC[C@]43C)[C@@H]12 [Compound 19, N-[3β-Hydroxy-30-(2′-morpholinoethoxy)-lup-20(29)-en-28-oyl]-leucine]
EC50 (HIV-1IIIB): 26.6 µM | CC50 (mock-infected MT-2 cell [1]): 35.8 µM

Structure (SMILES): C=C(C)[C@@H]1CC[C@]2(C(=O)N[C@@H](CC(C)C)C(=O)O)CC[C@]3(C)[C@H](CC[C@@H]4[C@@]5(C)CC[C@H](O)C(C)(C)[C@@H]5CC[C@]43C)[C@@H]12 [Compound 22, N-[3β-Hydroxy-lup-20(29)-en-28-oyl]-leucine]
CC50 (mock-infected MT-2 cell [1]): 29.8 µM

Structure (SMILES): C=C(CBr)[C@@H]1CC[C@]2(C(=O)N[C@@H](CC(C)C)C(=O)O)CC[C@]3(C)[C@H](CC[C@@H]4[C@@]5(C)CC[C@H](O)C(C)(C)[C@@H]5CC[C@]43C)[C@@H]12 [Compound 24, N-[3β-Hydroxy-30-bromo-lup-20(29)-en-28-oyl]-leucine]
EC50 (HIV-1IIIB): > 16.7 µM | CC50 (mock-infected MT-2 cell [2]): 26.8 µM

Structure (SMILES): C=C(CBr)[C@@H]1CC[C@]2(C(=O)NCCCCCCCC(=O)O)CC[C@]3(C)[C@H](CC[C@@H]4[C@@]5(C)CC[C@H](O)C(C)(C)[C@@H]5CC[C@]43C)[C@@H]12 [Compound 25, N-[3β-Hydroxy-30-bromo-lup-20(29)-en-28-oyl]-8-aminooctanoic acid]
EC50 (HIV-1IIIB): 2.3 µM | CC50 (mock-infected MT-2 cell [1]): 36.9 µM

Structure (SMILES): C=C(CO)[C@@H]1CC[C@]2(C(=O)N[C@@H](CC(C)C)C(=O)O)CC[C@]3(C)[C@H](CC[C@@H]4[C@@]5(C)CC[C@H](O)C(C)(C)[C@@H]5CC[C@]43C)[C@@H]12 [Compound 28, N-[3β,30-Dihydroxy-lup-20(29)-en-28-oyl]-leucine]
EC50 (HIV-1IIIB): > 16.7 µM | CC50 (mock-infected MT-2 cell [2]): 30.7 µM

Structure (SMILES): C=C(CO)[C@@H]1CC[C@]2(C(=O)NCCCCCCCC(=O)O)CC[C@]3(C)[C@H](CC[C@@H]4[C@@]5(C)CC[C@H](O)C(C)(C)[C@@H]5CC[C@]43C)[C@@H]12 [Compound 29, N-[3β,30-Dihydroxy-lup-20(29)-en-28-oyl]-8-aminooctanoic acid]
EC50 (HIV-1IIIB): 14.8 µM | CC50 (mock-infected MT-2 cell [1]): 40.7 µM

Structure (SMILES): C=C(C)[C@@H]1CC[C@]2(C(=O)N[C@@H](CC(C)C)C(=O)O)CC[C@]3(C)[C@H](CC[C@@H]4[C@@]5(C)CC[C@H](NC(=O)CC(C)(C)C(=O)O)C(C)(C)[C@@H]5CC[C@]43C)[C@@H]12 [Compound 36, N′-[3β-(3′,3′-Dimethylsuccinyl)-lup-20(29)-en-28-oyl]-leucine]
EC50 (HIV-1IIIB; Human immunodeficiency virus 1, MT2): 13.2 µM | melting point: 248 to 250 °C | CC50 (mock-infected MT-2 cell [2]): 35.9 µM

Structure (SMILES): C=C(C)[C@@H]1CC[C@]2(C(=O)N3CCC(CCCC(=O)O)CC3)CC[C@]3(C)[C@H](CC[C@@H]4[C@@]5(C)CC[C@H](OC(=O)CC(C)(C)C(=O)O)C(C)(C)[C@@H]5CC[C@]43C)[C@@H]12 [Compound 39, N-[3β-O-(3′,3′-Dimethylsuccinyl)-lup-20(29)-en-28-oyl]-4-piperidine butyric acid]
EC50 (HIV-1IIIB): 0.015 µM | CC50 (mock-infected MT-2 cell [2]): 20.8 µM

Structure (SMILES): C=C(C)[C@@H]1CC[C@]2(C(=O)N3CCC(CCCC(=O)O)CC3)CC[C@]3(C)[C@H](CC[C@@H]4[C@@]5(C)CC[C@H](OC(=O)CCC(C)(C)C(=O)O)C(C)(C)[C@@H]5CC[C@]43C)[C@@H]12 [Compound 40, N-[3β-O-(4′,4′-Dimethylglutaryl)-lup-20(29)-en-28-oyl]-4-piperidine butyric acid]
EC50 (HIV-1IIIB): 0.23 µM | CC50 (mock-infected MT-2 cell [2]): 33.2 µM

Structure (SMILES): C=C(C)[C@@H]1CC[C@]2(C(=O)N3CCC(CCCC(=O)NC)CC3)CC[C@]3(C)[C@H](CC[C@@H]4[C@@]5(C)CC[C@H](OC(=O)CC(C)(C)C(=O)O)C(C)(C)[C@@H]5CC[C@]43C)[C@@H]12 [Compound 45]
EC50 (HIV-1IIIB): 0.067 µM | EC50 (HIV-1NL4-3; [3]): 0.24 µM | CC50 (mock-infected MT-4 cell): > 10 µM | CC50 (mock-infected MT-2 cell [2]): 33.3 µM

Structure (SMILES): C=C(C)[C@@H]1CC[C@]2(C(=O)N3CCC(CCCC(=O)N4CCOCC4)CC3)CC[C@]3(C)[C@H](CC[C@@H]4[C@@]5(C)CC[C@H](OC(=O)CC(C)(C)C(=O)O)C(C)(C)[C@@H]5CC[C@]43C)[C@@H]12 [Compound 46, N′-[N-[3β-O-(3′,3′-Dimethylsuccinyl)-lup-20(29)-en-28-oyl]-4-piperidine-butanoyl]-morpholine]
EC50 (HIV-1IIIB): 0.011 µM | EC50 (HIV-1NL4-3; [3]): 0.07 µM | CC50 (mock-infected MT-4 cell): 8.8 µM | CC50 (mock-infected MT-2 cell [2]): 19.2 µM

Structure (SMILES): C=C(C)[C@@H]1CC[C@]2(C(=O)N3CCC(CCCC(=O)NCCN4CCOCC4)CC3)CC[C@]3(C)[C@H](CC[C@@H]4[C@@]5(C)CC[C@H](OC(=O)CC(C)(C)C(=O)O)C(C)(C)[C@@H]5CC[C@]43C)[C@@H]12 [Compound 47, N′-[N-[3β-O-(3′,3′-Dimethylsuccinyl)-lup-20(29)-en-28-oyl]-4-piperidine-butanoyl]-2-aminoethylmorpholine]
EC50 (HIV-1IIIB): 0.007 µM | EC50 (HIV-1NL4-3; [3]): 0.035 µM | CC50 (mock-infected MT-4 cell): 8.5 µM | CC50 (mock-infected MT-2 cell [2]): 17.3 µM

Structure (SMILES): C=C(C)[C@@H]1CC[C@]2(C(=O)N3CCC(CCCC(=O)NCCCN4CCOCC4)CC3)CC[C@]3(C)[C@H](CC[C@@H]4[C@@]5(C)CC[C@H](OC(=O)CC(C)(C)C(=O)O)C(C)(C)[C@@H]5CC[C@]43C)[C@@H]12 [Compound 48, N′-[N-[3β-O-(3′,3′-Dimethylsuccinyl)-lup-20(29)-en-28-oyl]-4-piperidine-butanoyl]-3-aminopropylmorpholine]
EC50 (HIV-1IIIB): 0.006 µM | EC50 (HIV-1NL4-3; [3]): 0.031 µM | CC50 (mock-infected MT-4 cell): 8.6 µM | CC50 (mock-infected MT-2 cell [2]): 18.5 µM
